Laboratory results reported in paper PMC12301034, “Design and Synthesis of Boronic Chalcones with Dual Anticancer and Anti-Inflammatory Activity” (Molecules, 2025).

What was measured:
HCT116 p53^−/− cells = assay: SRB cytotoxicity assay on HCT116 p53-/- cells; type: cell-based, human; details: Homo sapiens, HCT-116, 48 h of treatment
Source text: The SCC-25 (ATCC® CRL-1628™), Detroit-562 (ATCC® CCL-138™), and THP-1 (ATCC® TIB-202™) cells were purchased from Rio de Janeiro Cell Bank (Duque de Caxias, Brazil), and NOK-si was kindly provided by Prof. Carlos Rossa from the School of Dentistry—UNESP. All the cells were cultivated according to standard conditions. Human colorectal adenocarcinoma HCT116 cell lines (ATCC® CCL-247™) expressing p53 and its p53-null isogenic derivative (HCT116 p53^−/−) were provided by B. Vogelstein (The Johns Hopkins Kimmel Cancer Center, Baltimore, MD, USA).
HCT p53^+/+ and HCT p53^−/− cell lines were seeded in 96-well plates, with a concentration of 5000 cells/well, and allowed to adhere overnight. Afterwards, they were treated with serial dilutions of the compounds for an additional 48 h (compounds were prepared at 30 mM, in DMSO, and tested with a starting concentration of 50μM and 15 μM). Cells passed then through a series of essential steps (fixation with 10% trichloroacetic acid, for 1 h at 4 °C; staining with 0.4% sulforhodamine B (SRB); wash with 1% acetic acid; and solubilization with 10 mM Tris-Base); subsequently, absorbance was measured at 510 nm in a microplate reader (Biotek Instruments Inc., Synergy, MX, USA). IC50 values were determined using GraphPad Prism software, Version 7.0 (La Jolla, CA, USA).

IL-8 = assay: Anti-inflammatory assay, IL-8 in LPS-stimulated THP-1 cells (CBA); type: cell-based, human; details: 2 and 4 µg/mL, 24 h
Method: For this assay, THP-1 (BCRJ cód. 0234) cells were cultured in Roswell Park Memorial Institute (RPMI-1640, Sigma-Aldrich; Saint Louis, MO, USA) media supplemented with 2 mM L-glutamine, 1 mM sodium pyruvate, 1.50 g/L of sodium bicarbonate, and 10% fetal bovine serum. For obtaining Macrophage-like cells, 250,000 cells per well were plated in a 24-well cell culture plate. A total of 20 ng/mL of Forbol 12-miristato-13-acetato (PMA) was added to each well, and the cells were incubated for 48 h at 37 °C with 5% CO2. After the 48 h, the wells were washed with 1X PBS, and fresh RPMI-1640 media was added. The cells were then incubated for 24 h at 37 °C and 5% CO2. For the cell’s stimulations, after the 24 h, the well was washed with PBS and fresh RPMI1640 media without fetal bovine serum added. For the positive controls of the assay, 3 wells were stimulated with LPS (1 ng/µL) diluted in the same volume and media used for the drugs stimulation. Two different concentrations (2 and 4 µg/mL) were evaluated for each molecule, which were determined to be non-cytotoxic through a cell viability assay. After a 24 h period, the supernatant was removed and used in the cytokine quantification assay. A kit for inflammatory cytokines, BD® Cytometric Bead Array CBA Human Inflammatory, was employed for this assay, containing the following human cytokines: IL-8, IL-1β, IL-6, and TNF. […]

[1] = Metabolic stability in mouse (CD-1) liver microsomes; type: in vitro ADME
Method: The metabolic stability of test compounds and controls [imipramine (Sigma-Aldrich, St. Louis, MO, USA), verapamil (Sigma-Aldrich, St. Louis, MO, USA), and warfarin (Sigma-Aldrich, St. Louis, MO, USA)] were assessed using human pooled liver human microsomes (20 mg/mL) (GIBCO, Frederick, MD, USA) and pooled liver CD1 mouse microsomes (20 mg/mL) (GIBCO, Frederick, MD, USA). […] Microsomal suspensions were thawed and diluted in phosphate buffer to obtain a final concentration of 0.25 mg/mL. A solution of NADPH (Sigma-Aldrich, St. Louis, MO, USA) at […] was also prepared in phosphate buffer. […] The plate was incubated at 37 °C under shaking (100 rpm). […] The reactions were stopped by adding quenching solution (75 μL) consisting of acetonitrile:methanol (1:1) with an internal standard (50 nM). Samples were centrifuged (3500 rpm, 30 min) to remove precipitated microsomal proteins, and the supernatant fractions were analyzed by an LCMS-8045 system (Shimazu, Kyoto, Japan). The chromatographic analysis was performed using a Supelco Ascentis Express C18 column (3 cm × 2.1 mm, 5 μm). The mobile phases consisted of water + 0.1% formic acid (A) and acetonitrile + 0.1% formic acid (B). […] The run time was 2 min, with a sample injection volume of 10 μL and a flow rate of 0.7 mL/min. Metabolic stability was assessed by calculating the peak area ratios (analyte/internal standard) and converting them into the percentage of the compound remaining, using the area ratio at time 0 as 100%.

SCC-25 cells = assay: Microscopy of cells after incubation with compound; type: cell-based, human; details: 24 h of incubation, 9.45 μM, SCC-25 vs NOK-si

COc1cccc(C(=O)/C=C/c2cccc(B(O)O)c2)c1 [Compound 5, (E)-(3-(3-(3-methoxyphenyl)-3-oxoprop-1-en-1-yl)phenyl)boronic acid]
IC50 (HCT116 p53^−/− cells): 2160 ± 310 nM | reduction of IL-8 levels (IL-8): effectively reduced cytokine levels | microsomal CLint at 0.51 μM ([1]; CD-1, mouse, microsomes, pH 7.4): 36 µL/min/mg | half-life at 0.51 μM ([1]; CD-1, mouse, pooled liver microsomes, pH 7.4, read-out: Mouse Liver Microsome (MsLM) T1/2): 56.8 min | Mouse Liver Microsome (MsLM) T1/2 ([1]; mouse): 77.02 min | morphological alterations (SCC-25 cells): morphological alterations suggesting cell death features
